# Experimental data published in patent US10034886B2, “GLP-1 receptor modulators” (Celgene International II SÀRL, priority 2014, dated 2018).
# Molecular target: T1, GLP-1R (Homo sapiens, UniProt P43220)
# T1 construct: host or cells: GLP-1R CRE-bla CHO-K1 cells
# Test: EC20 GLP-1(9-36) PAM cAMP assay: dose response of compound in the presence of fixed concentration of GLP-1(9-36)
# Type: cell-based
# Settings: dose response of compound in presence of fixed concentration of GLP-1(9-36), GLP-1R CRE-bla CHO-K1 cells, read-out: EC20 GLP-1(9-36) PAM EC50
# Procedure, shortened: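 GLP-1R CRE-bla CHO-K1 cells treated 30 min at 37 °C with 12-point compound dose response plus fixed EC20 GLP-1(9-36), with IBMX, in HBSS/HEPES/0.1% BSA pH 7.4. Total cAMP measured by luminescent detection against standard curve; EC50 and Emax from non-linear regression.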
# T1 sequence (P43220 24-463): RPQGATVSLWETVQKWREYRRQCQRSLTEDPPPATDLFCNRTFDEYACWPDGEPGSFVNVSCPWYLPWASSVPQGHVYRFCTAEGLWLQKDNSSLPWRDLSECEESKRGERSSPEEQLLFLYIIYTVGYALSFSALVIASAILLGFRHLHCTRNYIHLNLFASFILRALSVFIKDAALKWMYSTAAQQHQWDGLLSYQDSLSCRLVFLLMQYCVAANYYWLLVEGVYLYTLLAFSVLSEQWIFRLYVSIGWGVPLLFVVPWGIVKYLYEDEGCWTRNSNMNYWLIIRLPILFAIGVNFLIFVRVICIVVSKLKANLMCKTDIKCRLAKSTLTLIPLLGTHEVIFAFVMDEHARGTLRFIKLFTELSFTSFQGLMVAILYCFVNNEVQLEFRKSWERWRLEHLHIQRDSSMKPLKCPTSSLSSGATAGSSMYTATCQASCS
# T1 sequence (P01275 100-127 partner limits assumed): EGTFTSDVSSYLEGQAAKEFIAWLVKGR
row,SMILES,EC50
1,CCCCCCCOc1ccc(-c2cnc(-c3ccc(C[C@H](NC(=O)c4ccc(C(C)(C)C)s4)C(=O)NC(C(=O)O)C(O)C(C)(C)C)cc3)nc2)cc1 (stereo partly drawn) [Compound 918],5 to 10 µM
2,CCC(CC)Oc1ccc(-c2cnc(-c3ccc(C[C@H](NC(=O)c4ccc(C(C)(C)C)s4)C(=O)N4CC(C(=O)O)C4)cc3)nc2)cc1 [Compound 919],5 to 10 µM
3,CC(C)(C)c1ccc(C(=O)N[C@@H](Cc2ccc(-c3ncc(-c4ccc(OCCC5CCCC5)cc4)cn3)cc2)C(=O)N2CC(C(=O)O)C2)s1 [Compound 920],0.8 to 2.5 µM
4,CC(C)(C)c1ccc(C(=O)N[C@@H](Cc2ccc(-c3ncc(-c4ccc(OC5CCCCC5)cc4)cn3)cc2)C(=O)N2CC(C(=O)O)C2)s1 [Compound 921],5 to 10 µM
5,CC(C)CCCCOc1ccc(-c2cnc(-c3ccc(C[C@H](NC(=O)c4ccc(C(C)(C)C)s4)C(=O)NC(C(=O)O)C(O)c4ccccc4)cc3)nc2)cc1 (stereo partly drawn) [Compound 923],0.8 to 2.5 µM
6,CC(C)CCCOc1ccc(-c2cnc(-c3ccc(C[C@H](NC(=O)c4ccc(C(C)(C)C)s4)C(=O)NC(C(=O)O)C(O)c4ccccc4)cc3)nc2)cc1 (stereo partly drawn) [Compound 924],2.5 to 5 µM
7,CC(C)(C)c1ccc(C(=O)N[C@@H](Cc2ccc(-c3ncc(-c4ccc(OC(F)(F)F)cc4)cn3)cc2)C(=O)NC(C(=O)O)C(O)c2ccccc2)s1 (stereo partly drawn) [Compound 927],2.5 to 5 µM
8,CC(C)(C)c1ccc(C(=O)N[C@@H](Cc2ccc(-c3ncc(-c4ccc(OCC(F)(F)F)cc4)cn3)cc2)C(=O)NC(C(=O)O)C(O)c2ccccc2)s1 (stereo partly drawn) [Compound 928],2.5 to 5 µM
9,CC(C)(C)c1ccc(C(=O)N[C@@H](Cc2ccc(-c3ncc(-c4ccc(OC5CCCC5)cc4)cn3)cc2)C(=O)NC(C(=O)O)C(O)c2ccccc2)s1 (stereo partly drawn) [Compound 929],5 to 10 µM
10,CC(C)(C)c1ccc(C(=O)N[C@@H](Cc2ccc(-c3ncc(-c4ccc(OC5CC5)cc4)cn3)cc2)C(=O)NC(C(=O)O)C(O)c2ccccc2)s1 (stereo partly drawn) [Compound 930],5 to 10 µM
11,CC(C)Oc1ccc(-c2cnc(-c3ccc(C[C@H](NC(=O)c4ccc(C(C)(C)C)s4)C(=O)NC(C(=O)O)C(O)c4ccccc4)cc3)nc2)cc1 (stereo partly drawn) [Compound 931],2.5 to 5 µM
12,CC(C)(C)c1ccc(-c2cnc(-c3ccc(C[C@H](NC(=O)c4ccc(C(C)(C)C)s4)C(=O)NC(C(=O)O)C(O)c4ccccc4)cc3)nc2)cc1 (stereo partly drawn) [Compound 932],2.5 to 5 µM
13,CC(C)COc1ccc(-c2cnc(-c3ccc(C[C@H](NC(=O)c4ccc(C(C)(C)C)s4)C(=O)NC(C(=O)O)C(O)c4ccccc4)cc3)nc2)cc1 (stereo partly drawn) [Compound 934],5 to 10 µM
14,CCC(CC)Oc1ccc(-c2cnc(-c3ccc(C[C@H](NC(=O)c4ccc(C(C)(C)C)s4)C(=O)NC(C(=O)O)C(O)c4ccccc4)cc3)nc2)cc1 (stereo partly drawn) [Compound 935],2.5 to 5 µM
15,CC(C)(C)c1ccc(C(=O)N[C@@H](Cc2ccc(-c3ncc(-c4ccc(OCC5CCCCC5)cc4)cn3)cc2)C(=O)NC(C(=O)O)C(O)c2ccccc2)s1 (stereo partly drawn) [Compound 936],0.8 to 2.5 µM

# Other lines, results leading:
row,EC50,SMILES
1,0.8 to 2.5 µM,CCCCCCCOc1ccc(-c2cnc(-c3ccc(C[C@H](NC(=O)c4ccc(C(C)(C)C)s4)C(=O)NC(C(=O)O)C(O)C4CCCO4)cc3)nc2)cc1 (stereo partly drawn) [Compound 916]
2,0.8 to 2.5 µM,CCCCCCCOc1ccc(-c2cnc(-c3ccc(C[C@H](NC(=O)c4ccc(C(C)(C)C)s4)C(=O)NC(C(=O)O)C(O)c4cnccn4)cc3)nc2)cc1 (stereo partly drawn) [Compound 917]
3,5 to 10 µM,CC(C)(C)c1ccc(C(=O)N[C@@H](Cc2ccc(-c3ncc(-c4ccc(OCC5CCCC5)cc4)cn3)cc2)C(=O)N2CC(C(=O)O)C2)s1 [Compound 922]
4,2.5 to 5 µM,CCCCCOc1ccc(-c2cnc(-c3ccc(C[C@H](NC(=O)c4ccc(C(C)(C)C)s4)C(=O)NC(C(=O)O)C(O)c4ccccc4)cc3)nc2)cc1 (stereo partly drawn) [Compound 925]
5,0.8 to 2.5 µM,CCCCCCCCOc1ccc(-c2cnc(-c3ccc(C[C@H](NC(=O)c4ccc(C(C)(C)C)s4)C(=O)NC(C(=O)O)C(O)c4ccccc4)cc3)nc2)cc1 (stereo partly drawn) [Compound 926]
6,5 to 10 µM,CCCOc1ccc(-c2cnc(-c3ccc(C[C@H](NC(=O)c4ccc(C(C)(C)C)s4)C(=O)NC(C(=O)O)C(O)c4ccccc4)cc3)nc2)cc1 (stereo partly drawn) [Compound 933]
